From patent US9234017B2, “Aquaporin-4 peptide compositions and methods of use thereof” (The Regents of the University of California, priority 2012, dated 2016)
Where two headings read alike, the source gives them in different places.

Tests used:
Format in all cases: cell-based, human
[1] = tested on: AQP4 p61-80-specific T cells; test: Epitope mapping: recall proliferation of AQP4 p61-80-reactive T cells to truncated peptides; conditions: NMO patients, peptides 10 μg/ml, irradiated autologous APC, [3H]thymidine after 3 d, FIG. 3A, 3B
[2] = tested on: peripheral blood mononuclear cells (PBMC); test: PBMC proliferation by [3H]thymidine incorporation, primary cultures; conditions: for proliferative responses of NMO patients to individual AQP4 peptides: peptides 10 μg/ml, 6 d, [3H]thymidine, FIG. 1B
[3] = tested on: T cells from NMO patients; test: T cell proliferation by CFSE dilution (cell division index); conditions: for proliferative T cell response to individual AQP4 peptides: NMO patients, CFSE dilution, peptides 10 μg/ml, 10 d, FIG. 1D
[4] = tested on: T cells initially stimulated with AQP4 p63-76 or ABC-TP
[5] = tested on: CD4+CFSElow proliferating T cells; test: Intracellular IL-17 and IFN-γ staining of proliferating antigen-specific CD4+ T cells; conditions: for frequencies of IL-17+ single- and IL-17+IFN-γ+ double-positive (Th17) cells: NMO patients in comparison to HC, PMA/Ionomycin 5 h, FIG. 4A, B
Protocol: (§1) Single-cell suspensions were incubated with human serum to prevent nonspecific antibody binding, then stained with anti-CD3, -CD4, -CD8, -CD25, -MHC Class II, -CD40, -CD80, and -CD86 (eBioscience and BD Bioscience). Intracellular cytokine production by CD4^+ T cells and APC was analyzed by monitoring the expression of IFN-γ, IL-17, IL-6, IL-1β and IL-10 (1:100) (eBioscience). Foxp3 staining was performed according to the manufacturer's protocol (eBioscience). For intracellular cytokine staining, T cells were stimulated with phorbol 12-myristate 13-acetate (PMA, 50 ng/ml) plus ionomycin (500 ng/ml) in the presence of GolgiStop (1 μl/ml) (BD Biosciences). CD14^+ cells were stimulated with LPS (1 μg/ml; Sigma-Aldrich) for 4 or 20 h in the presence of GolgiStop. Cells were analyzed by flow cytometry on a FACS Canto flow cytometer (BD Biosciences).
FIG. 4A-4D. […] PBMC were stained with CFSE and cultured for 10 d with AQP4 peptides (10 μg/ml) or rhAQP4 (5 μg/ml). (Panel A) CD4^+CFSE^low proliferating T cells were analyzed for IL-17 and IFN-γ production by intracellular staining after stimulation with PMA/Ionomycin for 5 h. (Panel B) Frequencies of IL17^+IFN-γ^−, IL17^+IFN-γ^+ and IL17^−IFN-γ^+ were examined among proliferating p61-80-specific CD4^+ T cells (n=8 NMO and n=5 HC), p156-170-specific CD4^+ T cells (n=6 NMO and n=3 HC) and rhAQP4-specific CD4^+ T cells (n=6 NMO and n=5 HC). Frequencies of IL-17- and IFN-γ-single positive T cells were used to calculate Th17/Th1 ratio. (Panel C) PBMC were examined by FACS for expression of Treg markers including CD4, CD127 and CD25. (Panel D) CFSE-labeled PBMC were cultured for 10 d with AQP4 p61-80 (10 μg/ml) or rhAQP4 (5 μg/ml). Proliferating CD4^+ T cells (CDI>2) were examined by FACS for expression of CD25^high, defined as the top half of CD25^+ cells, and Foxp3 (n=8 NMO p61-80, n=6 HC p61-80, n=7 NMO rhAQP4 and n=5 HC rhAQP4). Box-and-whisker plots include the median, distribution and range. **P<0.01 Mann-Whitney U test.

[6] = tested on: T cells initially stimulated with rhAQP4; test: Antigen recall proliferation after initial stimulation with rhAQP4
[7] = tested on: proliferating CD4+ T cells; test: Treg (CD25high Foxp3) frequency among proliferating antigen-specific CD4+ T cells; conditions: NMO patients versus HC, FIG. 4D
Protocol: as §1
FIG. 4A-4D. […] PBMC were stained with CFSE and cultured for 10 d with AQP4 peptides (10 μg/ml) or rhAQP4 (5 μg/ml). (Panel A) CD4^+CFSE^low proliferating T cells were analyzed for IL-17 and IFN-γ production by intracellular staining after stimulation with PMA/Ionomycin for 5 h. (Panel B) Frequencies of IL17^+IFN-γ^−, IL17^+IFN-γ^+ and IL17^−IFN-γ^+ were examined among proliferating p61-80-specific CD4^+ T cells (n=8 NMO and n=5 HC), p156-170-specific CD4^+ T cells (n=6 NMO and n=3 HC) and rhAQP4-specific CD4^+ T cells (n=6 NMO and n=5 HC). […]

[8] = PBMC from 4 NMO patients, primed 10 d at 10 μg/ml, [3H]thymidine after 3 d, FIG. 3E

GTEKPLPVDMVLISLC (synthetic poypeptide) [p61-76]
proliferation of AQP4 p61-80-specific T cells to truncated peptides [1]: proliferated

GTEKPLPVDMVLIS (synthetic poypeptide) [p61-74]
proliferation of AQP4 p61-80-specific T cells to truncated peptides [1]: not

p11-30: synthetic overlapping AQP4 20-mer peptide, amino acids 11-30 of human AQP4 (GKCGPLCTRENIMVAFKGVW; UniProt P55087 11-30, looked up, fragment)
proliferative responses of NMO patients to individual AQP4 peptides [2]: not detected | proliferative T cell response to individual AQP4 peptides [3]: T cell responses were observed

AGHGLLVELIITFQL (synthetic poypeptide) [p156-170]
proliferative responses of NMO patients to individual AQP4 peptides [2]: T cell determinants were identified | recall proliferation of ABC-TP p204-217-primed T cells [4, 8]: not observed | recall proliferation of AQP4 p63-76-primed T cells [4, 8]: not observed | frequencies of IL-17+ single- and IL-17+IFN-γ+ double-positive (Th17) cells [5]: No Th17 bias | proliferative T cell response to individual AQP4 peptides [3]: T cell responses were observed

p21-40: synthetic overlapping AQP4 20-mer peptide, amino acids 21-40 of human AQP4 (NIMVAFKGVWTQAFWKAVTA; UniProt P55087 21-40, looked up, fragment)
proliferative responses of NMO patients to individual AQP4 peptides [2]: T cell determinants were identified | proliferative T cell response to individual AQP4 peptides [3]: T cell responses were observed

p61-80: peptide of amino acids position 61 to position 80 of human AQP-4 protein sequence (GTEKPLPVDMVLISLCFGLS)
proliferative responses of NMO patients to individual AQP4 peptides [2]: T cell determinants were identified | immunodominance among peptides examined [6]: clearly immunodominant | frequencies of IL-17+ single- and IL-17+IFN-γ+ double-positive (Th17) cells [5]: significantly higher frequencies | Th17/Th1 ratio ([5]; NMO patients versus HC): elevated | proportion of CD4+ T cells that responded ([3]; NMO patients versus HC, FIG. 1E): higher in NMO patients than HC | proliferative T cell response to individual AQP4 peptides [3]: robust proliferative T cell response

tetanus toxoid: Tetanus toxoid obtained from List Biological Laboratories, Inc. [reference compound]
response to tetanus toxoid, HC compared with NMO patients ([2]; lymphocytes from healthy controls): comparable responses

GILYLVTPPSVVGGLGVTMV (synthetic poypeptide) [p131-150]
proliferative responses of NMO patients to individual AQP4 peptides [2]: T cell determinants were identified

rhAQP4: Full length recombinant human AQP4 (1-323) expressed in Pichia pastoris
frequency of Treg among antigen-specific T cells [7]: significantly reduced frequency | frequencies of IL-17+ single- and IL-17+IFN-γ+ double-positive (Th17) cells [5]: not significant

PVDMVLISLCFGLS (synthetic poypeptide) [p67-80]
proliferation of AQP4 p61-80-specific T cells to truncated peptides [1]: less efficiently than p63-80

PLPVDMVLISLCFGLS (synthetic poypeptide) [p65-80]
proliferation of AQP4 p61-80-specific T cells to truncated peptides [1]: less efficiently than p63-80

RFKEAFSKAAQQTKGSYMEV (synthetic poypeptide) [p261-280]
proliferative responses of NMO patients to individual AQP4 peptides [2]: not detected | proliferative T cell response to individual AQP4 peptides [3]: T cell responses were observed

GTEKPLPVDMVLISLCFG (synthetic poypeptide) [p61-78]
proliferation of AQP4 p61-80-specific T cells to truncated peptides [1]: proliferated

SMNPARSFGPAVIMGNWENH (synthetic poypeptide) [p211-230]
proliferative responses of NMO patients to individual AQP4 peptides [2]: T cell determinants were identified

FIILPVSMVLISLV [ABC-TP p204-217]
recall proliferation of AQP4 p63-76-primed T cells [4]: proliferated | proliferation of T cells from NMO patients [3]: proliferated significantly

GTEKPLPVDMVL (synthetic poypeptide) [p61-72]
proliferation of AQP4 p61-80-specific T cells to truncated peptides [1]: not

DMVLISLCFGLS (synthetic poypeptide) [p69-80]
proliferation of AQP4 p61-80-specific T cells to truncated peptides [1]: less efficiently than p63-80

EKPLPVDMVLISLC (listed as Homo sapiens) [p63-76]
recall proliferation of ABC-TP p204-217-primed T cells [4, 8]: vice versa | proliferation of AQP4 p61-80-specific T cells to truncated peptides [1]: nearly as efficiently
